Tested on: compound 48/80-induced lethality
Experiment: Protection of rats from compound 48/80-induced lethality
Type: in vivo, rats of an inbred Wistar strain
Details: Rattus norvegicus, 4 h, read-out: Compound 48/80 lethality test in rats ED50, s.c. or p.o. 1 h before compound 48/80 0.5 mg/kg i.v.; protection of 50% of animals, survival after 4 hours
Protocol: Protection of rats from compound 48/80-induced lethality
The protection from compound 48/80-induced lethal circulatory collapse appears to be a simple way of evaluating quantitatively the antihistaminic activity of test compounds. Male rats of an inbred Wistar strain, weighing 240-260 g were used in the experiment. After overnight starvation the rats were transferred to conditioned laboratories (temp.=21±1° C., relative humidity=65+5%). The rats were treated subcutaneously or orally with a test compound or with the solvent (NaCl solution, 0.9%). […] Survival after 4 hours is therefore considered to be a safe criterion of a protective effect of drug administration. The ED50 -values of the compounds of formula (I) are listed in the first column of tables 1 to 4. Said ED50 -values are the values in mg/kg body weight at which the tested compounds protect 50% of the tested animals against compound 48/80-induced lethality. The compounds of formula (I) and the pharmaceutically acceptable acid addition salts thereof are also potent serotonin-antagonists. The potency of the subject compounds as serotonin-antagonists is clearly evidenced by the results obtained in the following tests wherein the antagonistic activity of the subject compounds on the effect of serotonin is examined.

Compound | ED50
COc1ccc(CCN2CC[C@@H](Oc3nc4ccccc4n3Cc3ccc(F)cc3)[C@H](C)C2)cc1 (relative stereo) [Compound 268] | 0.16 mg/kg
C[C@@H]1CN(CCNc2ncccn2)CC[C@@H]1Oc1nc2ccccc2n1Cc1ccc(F)cc1 (relative stereo) [Compound 349, cis-N-[2-[4-[[1-[(4-fluorophenyl)methyl]-1H-benzimidazol-2-yl]oxy]-3-methyl-1-piperidinyl]ethyl]-2-pyrimidinamine] | 0.08 mg/kg
Fc1ccc(Cn2c(CC3CCN(Cc4ccccc4)CC3)nc3cccnc32)cc1 [Compound 8, 3-[(4-fluorophenyl)methyl]-2-[[1-(phenylmethyl)-4-piperidinyl]-methyl]-3H-imidazo[4,5-b]pyridine] | 0.04 mg/kg
Fc1ccc(Cn2c(CC3CCN(Cc4ccccc4)CC3)nc3ncccc32)cc1 [Compound 23, 1-[(4-fluorophenyl)methyl]-2-[[1-(phenylmethyl)-4-piperidinyl]methyl]-1H-imidazo[4,5-b]pyridine] | 0.08 mg/kg
Fc1ccc(Cn2c(CC3CCN(Cc4ccccc4)CC3)nc3ccncc32)cc1 [Compound 25, 3-[(4-fluorophenyl)methyl]-2-[[1-(phenylmethyl)-4-piperidinyl]-methyl]-3H-imidazo[4,5-c]pyridine] | 0.16 mg/kg
c1ccc(Cn2c(CC3CCNCC3)nc3ccccc32)cc1 [Compound 40, 1-(phenylmethyl)-2-(4-piperidinylmethyl)-1H-benzimidazole] | 0.08 mg/kg
Cc1ccc(Cn2c(CC3CCNCC3)nc3ccccc32)cc1 [Compound 42, 1-[(4-methylphenyl)methyl]-2-(4-piperidinylmethyl)-1H-benzimidazole] | 0.02 mg/kg
Fc1ccc(Cn2c(CC3CCNCC3)nc3cccnc32)cc1 [Compound 45, 3-[(4-fluorophenyl)methyl]-2-(4-piperidinylmethyl)-3H-imidazo[4,5-b]-pyridine] | 0.04 mg/kg
Fc1ccc(Cn2c(CC3CCNCC3)nc3ncccc32)cc1 [Compound 48, 1-[(4-fluorophenyl)methyl]-2-(4-piperidinylmethyl)-1H-imidazo[4,5-b]-pyridine] | 0.16 mg/kg
Fc1ccc(Cn2c(CC3CCNCC3)nc3ccncc32)cc1 [Compound 50, 3-[(4-fluorophenyl)methyl]-2-(4-piperidinylmethyl)-3H-imidazo[4,5-c]-pyridine] | 0.04 mg/kg
CCOC(=O)N1CCC(Cc2nc3ccccc3n2Cc2cccs2)CC1 [Compound 59, ethyl 4-[[1-(2-thienylmethyl)-1H-benzimidazol-2-yl]methyl]-1-piperidinecarboxylate] | 0.02 mg/kg
c1csc(Cn2c(CC3CCNCC3)nc3ccccc32)c1 [Compound 64, 2-(4-piperidinylmethyl)-1-(2-thienylmethyl)-1H-benzimidazole] | 0.04 mg/kg
Fc1ccc(Cn2c(OC3CCNCC3)nc3ccccc32)cc1 [Compound 66, 1-[(4-fluorophenyl)methyl]-2-(4-piperidinyloxy)-1H-benzimidazole] | 0.02 mg/kg
Cc1ccc(Cn2c(CC3CCN(C)CC3)nc3ccccc32)cc1 [Compound 81, 1-[(4-methylphenyl)methyl]-2-[(1-methyl-4-piperidinyl)methyl]-1H-benzimidazole] | 0.08 mg/kg
CC(C)N1CCC(Cc2nc3ccccc3n2Cc2ccc(F)cc2)CC1 [Compound 83] | 0.01 mg/kg
CN1CCC(Oc2nc3ccccc3n2Cc2ccc(F)cc2)CC1 [Compound 85] | 0.01 mg/kg
CN1CCC(Cc2nc3ccccc3n2Cc2ccco2)CC1 [Compound 86] | 0.01 mg/kg
CC(C)N1CCC(Cc2nc3cccnc3n2Cc2ccc(F)cc2)CC1 [Compound 89] | 0.04 mg/kg
CN1CCC(Cc2nc3ccccc3n2Cc2ccccc2)CC1 [Compound 93] | 0.04 mg/kg
CN1CCC(Sc2nc3ccccc3n2Cc2ccc(F)cc2)CC1 [Compound 96] | 0.04 mg/kg
Fc1ccc(Cn2c(CC3CCN(C4CCCCC4)CC3)nc3cccnc32)cc1 [Compound 98] | 0.04 mg/kg
CC(C)N1CCC(Cc2nc3cnccc3n2Cc2ccc(F)cc2)CC1 [Compound 100] | 0.16 mg/kg
OCCN1CCC(Sc2nc3ccccc3n2Cc2ccc(F)cc2)CC1 [Compound 104, 4-[[1-[(4-fluorophenyl)-methyl]-1H-benzimidazol-2-yl]thio]-1-piperidineethanol] | 0.08 mg/kg
OCCN1CCC(Oc2nc3ccccc3n2Cc2ccc(F)cc2)CC1 [Compound 105, 4-[[1-[(4-fluorophenyl)methyl]-1H-benzimidazol-2-yl]oxy]-1-piperidineethanol] | 0.01 mg/kg
COc1ccc(Cn2c(CC3CCN(CCO)CC3)nc3ccccc32)cc1 [Compound 110, 4-[[1-[(4-methoxyphenyl)methyl]-1H-benzimidazol-2-yl]methyl]-1-piperidineethanol] | 0.02 mg/kg

Compound | ED50
OCCN1CCC(Cc2nc3ccccc3n2Cc2ccccc2)CC1 [Compound 112] | 0.08 mg/kg
Cc1ccc(Cn2c(CC3CCN(CCO)CC3)nc3ccccc32)cc1 [Compound 113, 4-[[1-[(4-methylphenyl)methyl]-1H-benzimidazol-2-yl]methyl]-1-piperidineethanol] | 0.08 mg/kg
OCCN1CCC(Cc2nc3cccnc3n2Cc2ccc(F)cc2)CC1 [Compound 115, 4-[[3-[(4-fluorophenyl)methyl]-3H-imidazo[4,5-b]pyridin-2-yl]methyl]-1-piperidineethanol] | 0.16 mg/kg
OC(COc1ccc2ccccc2c1)CN1CCC(Cc2nc3ccccc3n2Cc2ccc(F)cc2)CC1 (stereo not drawn) [Compound 116, 4-[[1-[(4-fluorophenyl)methyl]-1H-benzimidazol-2-yl]methyl]-α-[(2-naphthalenyloxy)methyl]-1-piperidineethanol] | 0.16 mg/kg
Fc1ccc(Cn2c(CC3CCN(CCc4cccs4)CC3)nc3cccnc32)cc1 [Compound 117] | 0.01 mg/kg
CCn1nnn(CCN2CCC(Cc3nc4ccccc4n3Cc3ccc(F)cc3)CC2)c1=O [Compound 123] | 0.01 mg/kg
Fc1ccc(Cn2c(CC3CCN(CCSc4ccccc4)CC3)nc3ccccc32)cc1 [Compound 129] | 0.16 mg/kg
O=S(=O)(CCN1CCC(Cc2nc3ccccc3n2Cc2ccc(F)cc2)CC1)c1ccccc1 [Compound 130] | 0.16 mg/kg
CC(C)NC(=O)CN1CCC(Cc2nc3ccccc3n2Cc2ccc(F)cc2)CC1 [Compound 134] | 0.04 mg/kg
O=c1[nH]c2ccccc2n1CCCN1CCC(Cc2nc3ccccc3n2Cc2ccco2)CC1 [Compound 139, 1-[3-[4-[[1-(2-furanylmethyl)-1H-benzimidazol-2-yl]methyl]-1-piperidinyl]propyl]-1,3-dihydro-2H-benzimidazol-2-one] | 0.08 mg/kg
O=c1[nH]c2ccccc2n1CCCN1CCC(Oc2nc3ccccc3n2Cc2ccc(F)cc2)CC1 [Compound 140, 1-[3-[4-[[1-[(4-fluorophenyl)methyl]-1H-benzimidazol-2-yl]oxy]-1-piperidinyl]propyl]-1,3-dihydro-2H-benzimidazol-2-one] | 0.04 mg/kg
C=CCN1CCC(Cc2nc3cccnc3n2Cc2ccc(F)cc2)CC1 [Compound 142, 3-[(4-fluorophenyl)methyl]-2-[[1-(2-propenyl)-4-piperidinyl]methyl]-3H-imidazo-[4,5-b]pyridine] | 0.02 mg/kg
C=CCN1CCC(Cc2nc3ccccc3n2Cc2ccc(F)cc2)CC1 [Compound 144, 1-[(4-fluorophenyl)methyl]-2-[[1-(2-propenyl)-4-piperidinyl]methyl]-1H-benzimidazole] | 0.04 mg/kg
Fc1ccc(Cn2c(CC3CCN(CCSc4ccccc4)CC3)nc3cccnc32)cc1 [Compound 147, 3-[(4-fluorophenyl)methyl]-2-[[1-[2-(phenylthio)ethyl]-4-piperidinyl]methyl]-3H-imidazo[4,5-b]pyridine] | 0.08 mg/kg
NC(=O)CN1CCC(Cc2nc3ccccc3n2Cc2ccc(F)cc2)CC1 [Compound 149, 4-[[1-[(4-fluorophenyl)methyl]-1H-benzimidazol-2-yl]methyl]-1-piperidineacetamide] | 0.04 mg/kg
O=c1[nH]c2ccccc2n1CCCN1CCC(Cc2nc3cccnc3n2Cc2ccco2)CC1 [Compound 152] | 0.04 mg/kg
COc1ccc(Cn2c(CC3CCN(CCCn4c(=O)[nH]c5ccccc54)CC3)nc3ccccc32)cc1 [Compound 154] | 0.08 mg/kg
Cc1nc2n(c(=O)c1CCN1CCC(Cc3nc4ccccc4n3Cc3ccc(F)cc3)CC1)CCCS2 [Compound 158] | 0.04 mg/kg
O=c1oc2ccccc2cc1CCN1CCC(Cc2nc3ccccc3n2Cc2ccc(F)cc2)CC1 [Compound 161] | 0.04 mg/kg
Cc1nc2n(c(=O)c1CCN1CCC(Cc3nc4ccccc4n3Cc3ccco3)CC1)CCS2 [Compound 163] | 0.02 mg/kg
O=c1oc2ccccc2cc1CCN1CCC(Cc2nc3ccccc3n2Cc2ccco2)CC1 [Compound 165] | 0.02 mg/kg
Cc1nc2n(c(=O)c1CCN1CCC(Cc3nc4ccccc4n3Cc3ccco3)CC1)CCCS2 [Compound 166] | 0.04 mg/kg
O=c1[nH]c2ccccc2c(=O)n1CCCN1CCC(Cc2nc3cccnc3n2Cc2ccco2)CC1 [Compound 169] | 0.02 mg/kg
Cn1c(=O)n(CCN2CCC(Cc3nc4cccnc4n3Cc3ccco3)CC2)c(=O)c2ccccc21 [Compound 170] | 0.08 mg/kg
O=c1[nH]c2ccccc2c(=O)n1CCN1CCC(Cc2nc3cccnc3n2Cc2ccco2)CC1 [Compound 171] | 0.08 mg/kg

Same assay, conditions: s.c. or p.o. 1 h before compound 48/80 0.5 mg/kg i.v.; protection of 50% of animals, survival after 4 hours; 0.5 mg/kg, 240 min

Compound | Compound 48/80 lethality test in rats ED50
Cc1nc2n(c(=O)c1CCN1CCC(Cc3nc4ccccc4n3Cc3ccco3)CC1)CCS2 [Compound 167] | 0.01 mg/kg body weight

From patent publication US4839374A, “4-((Bicyclic heterocyclyl)-methyl and -hetero)-piperidines” (Janssen Pharmaceutica, N.V., priority 1987, dated 1989)
